The values below come from PubChem BioAssay (NCI).

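Compound exposure: 48 hours, 5 concentrations, 96-well plates. The concentration for 50% growth inhibition is given as GI50. The concentration for full growth arrest is given as TGI.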 A value given as a limit tells only on which side of the number the result lay.

Among the test systems are 786-0 renal; HOP-92 NSCLC; HCC-2998 colon; A549 NSCLC; LOX IMVI melanoma; RXF 393 renal; BT-549 breast; EKVX NSCLC; SF-295 CNS; OVCAR-5 ovarian.
Experiment in all cases: NCI tumour cell line growth inhibition, 48 h

In the case of `CC1=C(/C=C/C(C)=C\C=C\C(C)=C\C(=O)Nc2ccc3c(c2)OCO3)C(C)(C)CCC1`, the GI50 in the assay with 786-0 renal was 40.2 µM; with HOP-92 NSCLC it was 35.8 µM; with HCC-2998 colon, 3.97 µM; with A549 NSCLC, 84.8 µM; in the assay with LOX IMVI melanoma, 16.8 µM; with RXF 393 renal, 24 µM. In addition, the GI50 in the assay with BT-549 breast was 98.5 µM; in the assay with EKVX NSCLC it was 62.3 µM; in the assay on SF-295 CNS it was 31 µM; with OVCAR-5 ovarian it was above 100 µM. Also, the TGI was above 100 µM in the assay with 786-0 renal; above 100 µM in the assay on HOP-92 NSCLC; 36.5 µM in the assay with HCC-2998 colon; above 100 µM in the assay with A549 NSCLC; above 100 µM with LOX IMVI melanoma; above 100 µM with RXF 393 renal. Moreover, the TGI in the assay on BT-549 breast, in the assay with EKVX NSCLC, with SF-295 CNS and in the assay with OVCAR-5 ovarian was above 100 µM each time.

For `CC(C)(C)N1CCC1C(N)=O` (stereo not given), the GI50 in the assay with 786-0 renal, in the assay on HOP-92 NSCLC, with HCC-2998 colon, with A549 NSCLC, with LOX IMVI melanoma and in the assay with RXF 393 renal was above 100 µM each time. Moreover, the GI50 in the assay with BT-549 breast, with EKVX NSCLC, in the assay on SF-295 CNS and with OVCAR-5 ovarian was above 100 µM each time. Besides, the TGI in the assay with 786-0 renal, in the assay on HOP-92 NSCLC, with HCC-2998 colon, in the assay on A549 NSCLC, in the assay on LOX IMVI melanoma and in the assay with RXF 393 renal was above 100 µM throughout. For the same compound, the TGI in the assay with BT-549 breast, with EKVX NSCLC, with SF-295 CNS and in the assay on OVCAR-5 ovarian was above 100 µM throughout.

Turning to `C[C@]12CCC3[C@@H](C[C@@H]4SC(Nc5ccccc5)=N[C@@]45CC(=O)CC[C@]35C)[C@@H]1CCC2=O` (stereo not given in full), the GI50 in the assay with 786-0 renal is 3.02 µM; with HOP-92 NSCLC it was 18.7 µM; in the assay on HCC-2998 colon, 18.2 µM; with A549 NSCLC, 26.4 µM; in the assay on LOX IMVI melanoma it was 3.22 µM; in the assay on RXF 393 renal it was 3.18 µM. In addition, the GI50 with BT-549 breast was 4.58 µM; in the assay on EKVX NSCLC, 38.8 µM; in the assay on SF-295 CNS, 8.98 µM; with OVCAR-5 ovarian, 24.5 µM. The TGI in the assay on 786-0 renal is 13.1 µM; with HOP-92 NSCLC, 67.9 µM; in the assay on HCC-2998 colon, 44.8 µM; in the assay on A549 NSCLC it was above 100 µM; in the assay on LOX IMVI melanoma, 10.8 µM; in the assay on RXF 393 renal it was 14.2 µM. The TGI is 38.9 µM in the assay with BT-549 breast, above 100 µM with EKVX NSCLC, above 100 µM in the assay with SF-295 CNS and above 100 µM in the assay with OVCAR-5 ovarian.

Turning to `Cc1ccc2c(c1)nc(C(=O)c1ccco1)c(C(F)(F)F)[n+]2[O-]`, the GI50 is above 100 µM in the assay with 786-0 renal; 40.1 µM in the assay with HOP-92 NSCLC; above 100 µM in the assay on HCC-2998 colon; above 100 µM in the assay with A549 NSCLC; above 100 µM in the assay with LOX IMVI melanoma; above 100 µM in the assay with RXF 393 renal. Moreover, the GI50 was 78.5 µM in the assay with BT-549 breast, 57.5 µM with EKVX NSCLC, 64 µM in the assay with SF-295 CNS and above 100 µM with OVCAR-5 ovarian. The TGI in the assay on 786-0 renal, with HOP-92 NSCLC, with HCC-2998 colon, with A549 NSCLC, with LOX IMVI melanoma and with RXF 393 renal was above 100 µM throughout. The TGI with BT-549 breast, with EKVX NSCLC, with SF-295 CNS and in the assay on OVCAR-5 ovarian was above 100 µM throughout.

Turning to `CSc1nc2c(c(=O)[nH]1)N=C1c3ccccc3C(=O)C1C(c1ccc(F)cc1)N2` (stereo not given), the GI50 with 786-0 renal is 12.4 µM; in the assay on HOP-92 NSCLC it was 9.52 µM; in the assay with HCC-2998 colon it was 12.2 µM; in the assay with A549 NSCLC it was 12.6 µM; in the assay on LOX IMVI melanoma, 8.78 µM; in the assay on RXF 393 renal, 14.5 µM. The GI50 in the assay on BT-549 breast is 8.5 µM; with EKVX NSCLC it was 18.2 µM; in the assay with SF-295 CNS it was 3.67 µM; in the assay on OVCAR-5 ovarian it was 17.7 µM. Further, the TGI was 27.3 µM in the assay on 786-0 renal; 48.8 µM in the assay on HOP-92 NSCLC; 30.5 µM in the assay with HCC-2998 colon; above 100 µM with A549 NSCLC; 30 µM in the assay with LOX IMVI melanoma; 36.6 µM with RXF 393 renal. For the same compound, the TGI is 41.2 µM in the assay with BT-549 breast, above 100 µM in the assay with EKVX NSCLC, 34.3 µM with SF-295 CNS and 41.1 µM with OVCAR-5 ovarian.

For `Cc1ccc(C(CN(C)C)C(=O)c2ccccc2)cc1` (stereo not given), the GI50 is 2.12 µM in the assay on 786-0 renal; 2.07 µM with HOP-92 NSCLC; 6.62 µM in the assay on HCC-2998 colon; 16.7 µM in the assay on A549 NSCLC; 1.01 µM in the assay with LOX IMVI melanoma; 2.56 µM in the assay with RXF 393 renal. For the same compound, the GI50 is 1.7 µM in the assay on BT-549 breast, 4.63 µM with EKVX NSCLC, 5.09 µM with SF-295 CNS and 4.23 µM in the assay on OVCAR-5 ovarian. Further, the TGI was found to be 4 µM in the assay with 786-0 renal; 5.38 µM with HOP-92 NSCLC; 20.2 µM in the assay with HCC-2998 colon; 38 µM in the assay on A549 NSCLC; 2.27 µM with LOX IMVI melanoma; 7.52 µM with RXF 393 renal. For the same compound, the TGI in the assay with BT-549 breast was 3.75 µM; in the assay on EKVX NSCLC, 23.1 µM; with SF-295 CNS, 18.2 µM; in the assay on OVCAR-5 ovarian, 15.8 µM.

For the compound `N#CC(=S)Nc1cccc(Cl)c1`, the TGI in the assay with 786-0 renal was above 100 µM; in the assay on HOP-92 NSCLC it was above 100 µM; with HCC-2998 colon it was 83.1 µM; with A549 NSCLC, above 100 µM; in the assay on LOX IMVI melanoma, above 100 µM; in the assay with RXF 393 renal it was above 100 µM. Further, the TGI in the assay with BT-549 breast, in the assay with EKVX NSCLC, in the assay on SF-295 CNS and in the assay on OVCAR-5 ovarian was above 100 µM throughout.

On to `O=C1CCC(Cc2ccc(Cl)cc2Cl)C(=O)N1` (stereo not given), for which the TGI in the assay with 786-0 renal, in the assay with HOP-92 NSCLC, in the assay with A549 NSCLC, in the assay on LOX IMVI melanoma, with RXF 393 renal and in the assay on BT-549 breast was above 100 µM throughout. The TGI in the assay on EKVX NSCLC, in the assay on SF-295 CNS and in the assay on OVCAR-5 ovarian was above 100 µM each time.

Consider `Cc1cn(C2CC(F)C(CO)O2)c(=O)[nH]c1=O` (stereo not given), for which the GI50 with 786-0 renal, with HOP-92 NSCLC, with HCC-2998 colon, in the assay on A549 NSCLC, in the assay on LOX IMVI melanoma and in the assay on RXF 393 renal was above 100 µM throughout. In addition, the GI50 in the assay on BT-549 breast, in the assay with EKVX NSCLC and in the assay on OVCAR-5 ovarian was above 100 µM each time. In addition, the TGI with 786-0 renal, in the assay with HOP-92 NSCLC, in the assay with HCC-2998 colon, in the assay with A549 NSCLC, in the assay on LOX IMVI melanoma and in the assay on RXF 393 renal was above 100 µM in each case. Moreover, the TGI with BT-549 breast, in the assay with EKVX NSCLC and in the assay with OVCAR-5 ovarian was above 100 µM throughout.

Take `CCCC1c2c(ccc3ccccc23)Oc2ccc3ccccc3c21`: the TGI with 786-0 renal, in the assay with HOP-92 NSCLC, in the assay with A549 NSCLC, in the assay with LOX IMVI melanoma, in the assay on RXF 393 renal and in the assay with BT-549 breast was above 100 µM throughout. The TGI in the assay with EKVX NSCLC is above 100 µM; in the assay with SF-295 CNS, 88.6 µM; with OVCAR-5 ovarian it was above 100 µM.

As to `C/C(=N/S(=O)(=O)c1ccc(Cl)c(Cl)c1)OCC(C)(C)C`, the TGI with 786-0 renal, in the assay with HOP-92 NSCLC, in the assay on A549 NSCLC, in the assay on LOX IMVI melanoma, in the assay on RXF 393 renal and in the assay with BT-549 breast was above 100 µM throughout. The TGI in the assay with EKVX NSCLC, in the assay with SF-295 CNS and with OVCAR-5 ovarian was above 100 µM in each case.

For `C1CC[N-]CC1.C1CC[N-]CC1.C1CC[N-]CC1.C1CC[N-]CC1.[Cl][Rh][Cl]`, the GI50 in the assay with 786-0 renal was 41.4 µM; in the assay on HOP-92 NSCLC, 4.39 µM; in the assay on HCC-2998 colon it was 8.17 µM; in the assay on A549 NSCLC, 3.12 µM; in the assay with LOX IMVI melanoma, 10.2 µM; with RXF 393 renal, 13.8 µM. The GI50 with BT-549 breast was 5.6 µM; with SF-295 CNS, 3 µM; in the assay with OVCAR-5 ovarian, 6.83 µM. The TGI is above 100 µM in the assay on 786-0 renal; 22.1 µM with HOP-92 NSCLC; 30.3 µM in the assay with HCC-2998 colon; above 100 µM in the assay with A549 NSCLC; above 100 µM with LOX IMVI melanoma; 81.1 µM in the assay on RXF 393 renal. Moreover, the TGI was determined as 19.3 µM in the assay with BT-549 breast, 81.1 µM with SF-295 CNS and 49.8 µM in the assay on OVCAR-5 ovarian.

In the case of `CC(=O)Nc1ccc(/C=C/[N+](=O)[O-])cc1`, the TGI in the assay on 786-0 renal amounted to 7.61 µM; in the assay with HOP-92 NSCLC, 17.4 µM; in the assay with A549 NSCLC it was 17.6 µM; in the assay on LOX IMVI melanoma it was 3.91 µM; with RXF 393 renal it was 6.43 µM; in the assay with BT-549 breast, 12.4 µM. Moreover, the figures for the TGI in the assay on EKVX NSCLC, in the assay on SF-295 CNS and with OVCAR-5 ovarian were 12.9 µM, 14 µM and 9.25 µM, respectively.

`COc1ccc(-n2c(SCc3cc(OC)c(OC)c(OC)c3)nc3ccc(C)cc3c2=O)c(OC)c1`: the GI50 in the assay with 786-0 renal is 4.99 µM; with HOP-92 NSCLC, 2.58 µM; in the assay with HCC-2998 colon, 6.75 µM; with A549 NSCLC, 4.18 µM; with LOX IMVI melanoma it was 5.23 µM; in the assay with RXF 393 renal it was 4 µM. The GI50 is 4.31 µM with BT-549 breast, 3.22 µM in the assay with SF-295 CNS and 7.93 µM with OVCAR-5 ovarian. In addition, the TGI in the assay on 786-0 renal, in the assay with HOP-92 NSCLC, in the assay on HCC-2998 colon, in the assay with A549 NSCLC, in the assay on LOX IMVI melanoma and with RXF 393 renal was above 100 µM in each case. Besides, the TGI in the assay on BT-549 breast, in the assay on SF-295 CNS and in the assay on OVCAR-5 ovarian was above 100 µM in each case.
